Measured values: patent EP0421697A2, “Contrast agents and methods for enhancing magnetic resonance imaging” (SMITHKLINE BEECHAM CORPORATION, priority 1989, dated 1991)

Columns and labels:
normal rat kidney = experiment: MR imaging of rat kidney after i.v. bolus of Yb-DTPA (signal intensity ratio Ipapilla/Imuscle over time); type: in vivo, rats; settings: 1 ml of a 50 mM solution in saline, GE SIGNA 1.5T, images every 20 seconds, Figure 1
Excerpt: After administration of the chelate solution to the subject, imaging with any conventional MR imaging system may be begun. Preferably, a fast imaging sequence, such as gradient echo imaging is used. […] This graph plots the ratio of signal intensity of region of interest to signal intensity of surrounding muscle tissue over time, as shown, for example in Figure 1, discussed below.
As in the above comparative example, rats were provided with an infusion line and strapped in an MRI magnet GE SIGNA 1.5T. 1 ml of a 50 mM solution of Yb-DTPA in saline was injected (intravenously) as a bolus. Images were collected every 20 seconds and the signal intensity from the rat papilla (Ipapilla) and signal intensity for the surrounding rat muscle (Imuscle) were measured. […] The area under the curve is an index of GFR.

[1] = parameters: species or system Male Sprague-Dawley rats; settings: rat, in vivo
Protocol: Male Sprague-Dawley rats (200 to 350 g; Charles River Breeding Laboratories, Raleigh, NC) were anesthetized with Inactin (100 mg/kg, i.p.; Byk Gulden). A jugular vein and femoral artery were isolated and cannulated with PE-50 polyethylene tubing (Clay-Adams). The femoral artery cannula was connected to a pressure transducer (Gould-Statham Model P23id) for blood pressure and heart rate recording. The jugular vein cannula was connected to an infusion pump (Sage Model 352) and an infusion of inulin (Inutest, Laevasan-Gesellschaft; 10% in 0.9% NaCl) and ytterbium-diethyltriaminepentaacetic acid (Yb-DTPA in water 6.0 mg/ml) was initiated at a rate of […]. […]
Urine volumes were measured gravimetrically (specific gravity = 1) and 50 µl was removed for determination of inulin and Yb-DTPA concentrations. Inulin concentrations in plasma and urine samples were determined according to the method of Heyrosky (1956). Yb concentrations were determined by inductively-coupled plasma emission spectrometry using a Model JY-38P (Instruments SA, Inc.) and a grating of 3600 lines/mm. The 369.42 nm Yb line and 5 one-second measurements were taken at the end of each sample aspiration to provide an average reading (Bumbier, et al., 1984). […] Plasma concentrations of inulin and Yb-DTPA for C₂ were estimated from values measured for C₁ and C₃. […]

Substance: ytterbium-diethylenetriamine pentaacetic acid [Yb-DTPA]
- ratio of signal intensities Ipapilla/Imuscle against time (normal rat kidney): sharp decrease in the ratio and the slow rise
- Mean (± SEM) renal clearance (Cin, CYb) [1]: 1101 ± 47
- share of renal elimination via glomerular filtration [1]: ~85%
